Patent US20250243194A1, “ANTAGONIST OF ADENOSINE RECEPTORS” (AdoRx Therapeutics Limited, priority 2022, published 2025)
Read-outs that look alike come from different tables or passages of the source.

Tests used:
[1] = molecular target: human Adenosine A2a receptor (Homo sapiens (Human), UniProt P29274); assay: Adenosine receptor TR-FRET binding assay (A2a)
Experimental: (§1) All FRET binding experiments were conducted at room temperature in white 384-well plates, in assay binding buffer containing 1× LabMed (Cisbio, France), 100 μg/mL saponin, 1% DMSO and 0.02% pluronic acid. Binding of the fluorescently labelled Adenosine receptor antagonist XAC (CA200645, FRET acceptor) to terbium-labelled A1, A2a, A2b and A3 adenosine receptors (FRET donors) was detected by time-resolved FRET due to the close proximity of the donor and acceptor in a binding event. To investigate the ability of unlabelled test compounds to bind to Adenosine A1, A2a, A2b and A3 receptors, dose response curves were constructed that determined the ability of a range of concentrations to inhibit the binding of 30 nM CA200645 to the A2b receptor and 100 nM CA200645 to the A1, A2a, and A3 receptor.
(§2) Serial dilution (1:3 dilutions) of test compounds in neat DMSO and transfer of a 400 nL sample of test compound into the assay plate was carried out using the Mosquito (TTP Labtech, UK). The compound samples were incubated for 2 hours at room temperature with a fixed concentration of CA200645 defined for each receptor (see above) and CHO cell membranes containing the human Adenosine A1 (0.5 μg/well), A2a (0.3 μg/well), A2b (1 μg/well) or A3 (1 μg/well) receptor in 40 μL of assay buffer. Total and non-specific binding of CA200645 was determined in the absence and presence of 10 μM XAC, respectively. Following 2 hours incubation, the level of CA200645 binding was detected on a Pherastar FSX (BMG Labtech, Germany) using standard TR-FRET settings. The terbium donor was excited with three laser flashes at a wavelength of 337 nm, and donor and acceptor emission was detected at 620 nm and 665 nm wavelengths, respectively. FRET ratios were obtained by multiplying the acceptor/donor ratio value by 10,000. Specific binding was determined by subtracting the non-specific binding FRET ratio from the total binding FRET ratio. Compound IC50 curves were analysed using GraphPad Prism 7.0 (GraphPad, USA) and Ki affinity values were determined from the obtained IC50 values using the method of Cheng and Prusoff.

[2] = molecular target: human Adenosine A1 receptor (Homo sapiens (Human), UniProt P30542); assay: Adenosine receptor TR-FRET binding assay (A1)
Experimental: as §1, §2

[3] = molecular target: human Adenosine A2b receptor (Homo sapiens (Human), UniProt P29275); assay: Adenosine receptor TR-FRET binding assay (A2b); conditions: inhibition of binding of 30 nM CA200645; CHO cell membranes; Ki from IC50 by Cheng and Prusoff
Experimental: as §1, §2

[4] = inhibition of binding of 100 nM CA200645, CHO cell membranes, Ki from IC50 by Cheng and Prusoff

Chain of human Adenosine A2a receptor (P29274 whole entry): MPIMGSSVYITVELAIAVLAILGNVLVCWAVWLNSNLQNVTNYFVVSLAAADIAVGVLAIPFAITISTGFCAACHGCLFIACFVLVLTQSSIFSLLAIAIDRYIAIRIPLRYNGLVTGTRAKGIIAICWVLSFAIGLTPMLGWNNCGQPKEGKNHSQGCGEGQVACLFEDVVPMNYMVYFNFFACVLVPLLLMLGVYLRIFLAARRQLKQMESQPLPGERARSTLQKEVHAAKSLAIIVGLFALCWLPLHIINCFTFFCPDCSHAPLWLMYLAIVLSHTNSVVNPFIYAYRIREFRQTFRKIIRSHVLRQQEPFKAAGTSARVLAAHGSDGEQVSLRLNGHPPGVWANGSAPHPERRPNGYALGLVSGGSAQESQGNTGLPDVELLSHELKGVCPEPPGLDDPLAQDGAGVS
Chain of human Adenosine A2b receptor (P29275 whole entry): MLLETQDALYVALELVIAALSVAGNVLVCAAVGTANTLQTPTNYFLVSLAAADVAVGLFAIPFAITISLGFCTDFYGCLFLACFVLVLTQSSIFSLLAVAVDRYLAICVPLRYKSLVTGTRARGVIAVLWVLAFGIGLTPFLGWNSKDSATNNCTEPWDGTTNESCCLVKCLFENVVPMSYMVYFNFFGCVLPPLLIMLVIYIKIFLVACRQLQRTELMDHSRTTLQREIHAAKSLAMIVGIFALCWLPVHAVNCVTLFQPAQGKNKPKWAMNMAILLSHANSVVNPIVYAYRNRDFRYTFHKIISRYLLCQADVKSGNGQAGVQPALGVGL
Chain of human Adenosine A1 receptor (P30542 whole entry): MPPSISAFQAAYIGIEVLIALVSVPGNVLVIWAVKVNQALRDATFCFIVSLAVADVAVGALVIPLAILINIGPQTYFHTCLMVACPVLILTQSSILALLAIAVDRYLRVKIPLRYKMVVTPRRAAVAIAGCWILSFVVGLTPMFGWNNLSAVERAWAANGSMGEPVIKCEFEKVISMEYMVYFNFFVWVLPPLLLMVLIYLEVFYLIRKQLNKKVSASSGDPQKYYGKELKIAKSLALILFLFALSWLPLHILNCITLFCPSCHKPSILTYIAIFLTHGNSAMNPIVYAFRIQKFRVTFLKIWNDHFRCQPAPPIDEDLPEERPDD

Compound | Ki [1, 4] [nM] | Ki [2, 4] [nM] | Ki [3] [nM] | Ki [1] [nM] | Ki [2] [nM]
Cc1ncnc2ccc(-c3sc(NC(=O)N4CCOC(C(C)(C)O)C4)nc3-c3cccc(C#N)c3)cc12 (racemic) [Example 7.7, N-[4-(3-Cyanophenyl)-5-(4-methylquinazolin-6-yl)thiazol-2-yl]-2-(1-hydroxy-1-methyl-ethyl)morpholine-4-carboxamide] | 0.26 | 9 | 3.6 |  | 
Cc1ncnc2ccc(-c3sc(NC(=O)N4CC[C@](C)(C#N)C4)nc3-c3cccc(C#N)c3)cc12 [Example 1, (3S)-3-Cyano-N-[4-(3-cyanophenyl)-5-(4-methylquinazolin-6-yl)thiazol-2-yl]-3-methyl-pyrrolidine-1-carboxamide] | 0.12 | 2 | 0.9 |  | 
Cc1ncnc2ccc(-c3sc(NC(=O)N4CC5(COCCN5)C4)nc3-c3cccc(C#N)c3)cc12 [Example 4.2, N-[4-(3-Cyanophenyl)-5-(4-methylquinazolin-6-yl)thiazol-2-yl]-8-oxa-2,5-diazaspiro[3.5]nonane-2-carboxamide] |  |  | 3 | 0.35 | 34
Cc1ncnc2ccc(-c3sc(NC(=O)N4CCN(C(C)(C)C#N)CC4)nc3-c3cccc(C#N)c3)cc12 [Example 7.2, 4-(1-Cyano-1-methyl-ethyl)-N-[4-(3-cyanophenyl)-5-(4-methylquinazolin-6-yl)thiazol-2-yl]piperazine-1-carboxamide] | 0.2 | 9 | 1.5 |  | 
Cc1ncnc2ccc(-c3sc(NC(=O)N4CCN(C(C)C#N)CC4)nc3-c3cccc(C#N)c3)cc12 (stereo not drawn) [Example 7.5, 4-(1-Cyanoethyl)-N-[4-(3-cyanophenyl)-5-(4-methylquinazolin-6-yl)thiazol-2-yl]piperazine-1-carboxamide] | 0.21 | 9 | 1.2 |  | 
Cc1ncnc2ccc(-c3sc(NC(=O)N4CCOC(CN(C)C)C4)nc3-c3cccc(C#N)c3)cc12 (stereo not drawn) [Example 7.8, N-[4-(3-Cyanophenyl)-5-(4-methylquinazolin-6-yl)thiazol-2-yl]-2-[(dimethylamino)methyl]morpholine-4-carboxamide] | 0.14 | 13 | 2.4 |  | 
Cc1ncnc2ccc(-c3sc(NC(=O)N4CCC5(CC4)CN(C)CCO5)nc3-c3cccc(C#N)c3)cc12 [Example 7.10, N-[4-(3-Cyanophenyl)-5-(4-methylquinazolin-6-yl)thiazol-2-yl]-4-methyl-1-oxa-4,9-diazaspiro[5.5]undecane-9-carboxamide] | 0.42 | 12 | 2.8 |  | 
Cc1ncnc2ccc(-c3sc(NC(=O)N4CC5CCCN(C)C5C4)nc3-c3cccc(C#N)c3)cc12 (stereo not drawn) [Example 7.11, N-[4-(3-Cyanophenyl)-5-(4-methylquinazolin-6-yl)thiazol-2-yl]-1-methyl-3,4,4a,5,7,7a-hexahydro-2H-pyrrolo[3,4-b]pyridine-6-carboxamide] | 0.54 | 98 | 5.4 |  | 
Cc1ncnc2ccc(-c3sc(NC(=O)N4CCC(N5CCN(C)CC5)CC4)nc3-c3cccc(C#N)c3)cc12 [Example 7.12, N-[4-(3-Cyanophenyl)-5-(4-methylquinazolin-6-yl)thiazol-2-yl]-4-(4-methylpiperazin-1-yl)piperidine-1-carboxamide] | 2.05 | 221 | 6.5 |  | 
Cc1ncnc2ccc(-c3sc(NC(=O)N4CCN(C5CCN(C)CC5)CC4)nc3-c3cccc(C#N)c3)cc12 [Example 7.13, N-[4-(3-Cyanophenyl)-5-(4-methylquinazolin-6-yl)thiazol-2-yl]-4-(1-methyl-4-piperidyl)piperazine-1-carboxamide] | 1.01 | 125 | 4.8 |  | 
Cc1ncnc2ccc(-c3sc(NC(=O)N4CCCNCC4)nc3-c3cccc(C#N)c3)cc12 [Example 7.18, N-[4-(3-Cyanophenyl)-5-(4-methylquinazolin-6-yl)thiazol-2-yl]-1,4-diazepane-1-carboxamide] | 0.38 | 11 | 2.2 |  | 
Cc1nc(C)c2cc(-c3sc(NC(=O)N4CC5(COC5)C4)nc3-c3cccc(C#N)c3)ccc2n1 [Example 9, N-[4-(3-Cyanophenyl)-5-(2,4-dimethylquinazolin-6-yl)thiazol-2-yl]-2-oxa-6-azaspiro[3.3]heptane-6-carboxamide] | 5.45 | 70 | 6 |  | 

Second part, the molecule after the results:

Ki [1, 4] [nM] | Ki [2, 4] [nM] | Ki [3] [nM] | Ki [1] [nM] | Ki [2] [nM] | Compound
0.1 | 4 | 1.1 |  |  | Cc1ncnc2ccc(-c3sc(NC(=O)N4CCO[C@H](C(C)(C)O)C4)nc3-c3cccc(C#N)c3)cc12 (single isomer, unassigned) [Example 7.7a, (2S)—N-[4-(3-Cyanophenyl)-5-(4-methylquinazolin-6-yl)thiazol-2-yl]-2-(1-hydroxy-1-methyl-ethyl)morpholine-4-carboxamide or (2R)—N-[4-(3-cyanophenyl)-5-(4-methylquinazolin-6-yl)thiazol-2-yl]-2-(1-hydroxy-1-methyl-ethyl)morpholine-4-carboxamide]
0.2 | 9 | 1.5 |  |  | Cc1ncnc2ccc(-c3sc(NC(=O)N4CCO[C@H](C(C)(C)O)C4)nc3-c3cccc(C#N)c3)cc12 (single isomer, unassigned) [Example 7.7b, (2S)—N-[4-(3-Cyanophenyl)-5-(4-methylquinazolin-6-yl)thiazol-2-yl]-2-(1-hydroxy-1-methyl-ethyl)morpholine-4-carboxamide or (2R)—N-[4-(3-cyanophenyl)-5-(4-methylquinazolin-6-yl)thiazol-2-yl]-2-(1-hydroxy-1-methyl-ethyl)morpholine-4-carboxamide]
 |  | 2.4 | 0.3 | 30 | Cc1ncnc2ccc(-c3sc(NC(=O)N4CCC5(COCCN5)C4)nc3-c3cccc(C#N)c3)cc12 (stereo not drawn) [Example 4.3, N-[4-(3-Cyanophenyl)-5-(4-methylquinazolin-6-yl)thiazol-2-yl]-9-oxa-2,6-diazaspiro[4.5]decane-2-carboxamide]
2.42 | 19 | 10.5 |  |  | Cc1ncnc2ccc(-c3sc(NC(=O)N4CC5CN(C)CC54)nc3-c3cccc(C#N)c3)cc12 (stereo not drawn) [Example 7.3, N-[4-(3-Cyanophenyl)-5-(4-methylquinazolin-6-yl)thiazol-2-yl]-3-methyl-3,6-diazabicyclo[3.2.0]heptane-6-carboxamide]
0.1 | 21 | 1.9 |  |  | Cc1ncnc2ccc(-c3sc(NC(=O)N4CCC(OCCN5CCCC5)C4)nc3-c3cccc(C#N)c3)cc12 (stereo not drawn) [Example 7.9, N-[4-(3-Cyanophenyl)-5-(4-methylquinazolin-6-yl)thiazol-2-yl]-3-(2-pyrrolidin-1-ylethoxy)pyrrolidine-1-carboxamide]
2.61 | 150 | 5.4 |  |  | Cc1ncnc2ccc(-c3sc(NC(=O)N4CCC(N5CCOCC5)CC4)nc3-c3cccc(C#N)c3)cc12 [Example 7.14, N-[4-(3-Cyanophenyl)-5-(4-methylquinazolin-6-yl)thiazol-2-yl]-4-morpholino-piperidine-1-carboxamide]
0.18 | 14 | 1.1 |  |  | Cc1ncnc2ccc(-c3sc(NC(=O)N4CCN(CC#N)CC4)nc3-c3cccc(C#N)c3)cc12 [Example 7.15, 4-(Cyanomethyl)-N-[4-(3-cyanophenyl)-5-(4-methylquinazolin-6-yl)thiazol-2-yl]piperazine-1-carboxamide]
0.18 | 17 | 2.6 |  |  | Cc1ncnc2ccc(-c3sc(NC(=O)N4CCN[C@H](C(C)(C)O)C4)nc3-c3cccc(C#N)c3)cc12 [Example 7.16, (3S)-N-[4-(3-Cyanophenyl)-5-(4-methylquinazolin-6-yl)thiazol-2-yl]-3-(1-hydroxy-1-methyl-ethyl)piperazine-1-carboxamide]
0.08 | 13 | 0.9 |  |  | Cc1ncnc2ccc(-c3sc(NC(=O)N4CC5(CCO5)C4)nc3-c3cccc(C#N)c3)cc12 [Example 7.19, N-[4-(3-Cyanophenyl)-5-(4-methylquinazolin-6-yl)thiazol-2-yl]-1-oxa-6-azaspiro[3.3]heptane-6-carboxamide]
0.48 | 27 | 3.1 |  |  | Cc1ncnc2ccc(-c3sc(NC(=O)N4CCN(CCO)CC4)nc3-c3cccc(C#N)c3)cc12 [Example 7.27, N-[4-(3-Cyanophenyl)-5-(4-methylquinazolin-6-yl)thiazol-2-yl]-4-(2-hydroxyethyl)piperazine-1-carboxamide]
